How the values were obtained:
Type in all cases: in vivo
[1] = tested on: Bean Rust (Uromyces appendiculatus); assay: Greenhouse control of bean rust, second experiment; settings: common bean, 10 days after infection (200 k conidia/ml), RTI472 and SERENADE OPTIMUM 1×10^8 cfu/ml, Tebuconazole 50 g a.i./ha, Chlorothalonil 500 g a.i./ha, non-treated 23% disease
[2] = tested on: Pepper Botrytis Blight (Botrytis cinerea); assay: Greenhouse control of Pepper Botrytis Blight; settings: 7 days after infection (1M conidia/ml), RTI472 and SERENADE OPTIMUM 1×10^8 cfu/ml, Tebuconazole 50 g a.i./ha, Chlorothalonil 500 g a.i./ha, non-treated 6% disease
[3] = tested on: Soybean Powdery Mildew (Microsphaera diffusa); assay: Greenhouse control of soybean powdery mildew; settings: 9 days after placing between infected flats, 1×10^8 cfu/ml, Tebuconazole (HORIZON) 50 g a.i./ha, non-treated 70% disease
[4] = tested on: Pepper Botrytis Blight (Botrytis cinerea); assay: Greenhouse control of Pepper Botrytis Blight at varying pathogen inoculation rates; settings: 4 days after infection, biologicals 1 × 10^8, Tebuconazole 50 g a.i./ha, non-treated 65% disease
[5] = tested on: Pepper Botrytis Blight (Botrytis cinerea); assay: Greenhouse dose response for control of Pepper Botrytis Blight; settings: 3 days after infection (1M conidia/ml), 50 g a.i./ha

Row | Structure (SMILES) | Percent Disease Control [1] | Percent Disease Control [2] | Percent Disease Control [3] | Percent Disease Control ([4]; inoculum 1M conidia/ml) | Percent Disease Control ([4]; inoculum 2M conidia/ml) | Percent Disease Control [5]
1 | N#Cc1c(Cl)c(Cl)c(Cl)c(C#N)c1Cl [Chlorothalonil] | 100 a Percent | 99 a Percent | – | – | – | –
2 | CC(C)(C)C(O)(CCc1ccc(Cl)cc1)Cn1cncn1 (centres unmarked) [Tebuconazole] | 100 a Percent | 99 a Percent | 100 a Percent | 100 a Percent | 94 a Percent | 100 a Percent
